In this assay the target is T1, Human M4 (Homo sapiens, UniProt P08173).
T1 construct: Human or rat M4 cDNA, along with the chimeric G protein Gqi5, were transfected into Chinese hamster ovary (CHO-K1) cells; expressed in transfected cells; host or cells: CHO-K1 (Chinese hamster ovary, ATCC), stably co-expressing Gqi5
T1 sequence (P08173 1-479): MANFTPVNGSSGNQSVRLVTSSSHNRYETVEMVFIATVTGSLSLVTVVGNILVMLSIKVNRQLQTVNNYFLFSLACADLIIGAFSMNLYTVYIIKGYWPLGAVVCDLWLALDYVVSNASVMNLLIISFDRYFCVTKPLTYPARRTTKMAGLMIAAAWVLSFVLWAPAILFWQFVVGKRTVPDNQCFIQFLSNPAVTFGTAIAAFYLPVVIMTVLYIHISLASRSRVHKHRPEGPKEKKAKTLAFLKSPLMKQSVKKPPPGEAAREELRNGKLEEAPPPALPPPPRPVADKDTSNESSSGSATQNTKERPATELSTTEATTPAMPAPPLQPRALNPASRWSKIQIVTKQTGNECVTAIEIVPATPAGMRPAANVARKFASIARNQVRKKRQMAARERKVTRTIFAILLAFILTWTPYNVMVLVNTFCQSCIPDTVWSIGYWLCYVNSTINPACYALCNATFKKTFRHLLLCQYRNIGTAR
The experiment in a line: mAChR M4 cell-based functional assay (calcium flux, decrease of EC80 acetylcholine response). As to conditions: for remaining activity at 30 µM: % ACh maximum at 30 μM, read-out: Human M4 Emin; for pIC50: M4/Gqi5/CHO-K1 cells, decrease of response to EC80 acetylcholine. The procedure, abridged:
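IC50 reflects inhibition of an EC80 acetylcholine calcium response, fitted by four-parameter logistic equation. Fluo-4-loaded M4/Gqi5 CHO-K1 cells received compound (10-point, 1:3 series) 2 s into the FDSS read, then EC20 acetylcholine at 143 s and EC80 at 268 s.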

pIC50: −log10 of the molar value.

`[2H][C@@]1(Oc2cc(C(F)(F)F)c(-c3cc(F)ccc3C)nn2)C[C@H]2CN(CC3CCOCC3)C[C@H]2C1` [Example 133, (3aR,5s,6aS)-5-((6-(5-fluoro-2-methylphenyl)-5-(trifluoromethyl)pyridazin-3-yl)oxy)-2-((tetrahydro-2H-pyran-4-yl)methyl)octahydro-cyclopenta[c]pyrrole-5-d]: the remaining activity at 30 µM was 3% and the pIC50 is 6.66.

Take `[2H][C@@]1(Oc2nnc(-c3cc(F)ccc3C)cc2C(F)(F)F)C[C@H]2CN(Cc3ccccn3)C[C@H]2C1` [Example 134, (3aR,5s,6aS)-5-((6-(5-fluoro-2-methylphenyl)-4-(trifluoro-methyl)pyridazin-3-yl)oxy)-2-(pyridin-2-ylmethyl)octahydro-cyclopenta[c]pyrrole-5-d]: the remaining activity at 30 µM worked out at 6% and the pIC50 is 5.55.

For `[2H][C@@]1(Oc2nnc(-c3cc(F)ccc3C)cc2C(F)(F)F)C[C@H]2CN(CC3CCOCC3)C[C@H]2C1` [Example 135, (3aR,5s,6aS)-5-((6-(5-fluoro-2-methylphenyl)-4-(trifluoro-methyl)pyridazin-3-yl)oxy)-2-((tetrahydro-2H-pyran-4-yl)methyl)octahydro-cyclopenta[c]pyrrole-5-d], the remaining activity at 30 µM stood at 4% and the pIC50 was 6.21.

For the compound `C[C@@H]1CCCN(c2cc(C(F)(F)F)c(N[C@H]3C[C@@H]4CN(CC5CCOCC5)C[C@@H]4C3)nn2)C1` [Example 136, (3aR,5s,6aS)-N-(6-((R)-3-methylpiperidin-1-yl)-4-(trifluoromethyl)pyridazin-3-yl)-2-((tetrahydro-2H-pyran-4-yl)methyl)octahydro-cyclopenta[c]pyrrol-5-amine], the remaining activity at 30 µM is 2% and the pIC50 was 7.69.

As for `C[C@H]1CCCN(c2cc(C(F)(F)F)c(N[C@H]3C[C@@H]4CN(CC5CCOCC5)C[C@@H]4C3)nn2)C1` [Example 137, (3aR,5s,6aS)-N-(6-((S)-3-methylpiperidin-1-yl)-4-(trifluoro-methyl)pyridazin-3-yl)-2-((tetrahydro-2H-pyran-4-yl)methyl)octahydro-cyclopenta[c]pyrrol-5-amine], the remaining activity at 30 µM turned out to be 2% and the negative logarithm of the IC50 (pIC50) is 7.84.

Regarding `FC1(F)CCCN(c2cc(C(F)(F)F)c(N[C@H]3C[C@@H]4CN(CC5CCOCC5)C[C@@H]4C3)nn2)C1` [Example 138, (3aR,5s,6aS)-N-(6-(3,3-difluoro-piperidin-1-yl)-4-(trifluoro-methyl)pyridazin-3-yl)-2-((tetrahydro-2H-pyran-4-yl)methyl)octahydro-cyclopenta[c]pyrrol-5-amine], the remaining activity at 30 µM was 2% and the pIC50 was 7.67.

As for `F[C@H]1CCN(c2cc(C(F)(F)F)c(N[C@H]3C[C@@H]4CN(CC5CCOCC5)C[C@@H]4C3)nn2)C1` [Example 139, (3aR,5s,6aS)-N-(6-((S)-3-fluoropyrrolidin-1-yl)-4-(trifluoromethyl)pyridazin-3-yl)-2-((tetrahydro-2H-pyran-4-yl)methyl)octahydro-cyclopenta[c]pyrrol-5-amine], the remaining activity at 30 µM came out at 2% and the pIC50 was 8.14.

In the case of `F[C@@H]1CCN(c2cc(C(F)(F)F)c(N[C@H]3C[C@@H]4CN(CC5CCOCC5)C[C@@H]4C3)nn2)C1` [Example 140, (3aR,5s,6aS)-N-(6-((R)-3-fluoropyrrolidin-1-yl)-4-(trifluoromethyl)pyridazin-3-yl)-2-((tetrahydro-2H-pyran-4-yl)methyl)octahydro-cyclopenta[c]pyrrol-5-amine], the remaining activity at 30 µM is 2% and the negative-log IC50 (pIC50) is 8.04.

Take `FC1(F)CCN(c2cc(C(F)(F)F)c(N[C@H]3C[C@@H]4CN(CC5CCOCC5)C[C@@H]4C3)nn2)C1` [Example 141, (3aR,5s,6aS)-N-(6-(3,3-difluoropyrrolidin-1-yl)-4-(trifluoromethyl)pyridazin-3-yl)-2-((tetrahydro-2H-pyran-4-yl)methyl)octahydro-cyclopenta[c]pyrrol-5-amine]: the remaining activity at 30 µM was 2% and the pIC50 was 8.08.

In the case of `FC(F)(F)c1cc(N2CCCC2)nnc1N[C@H]1C[C@@H]2CN(CC3CCOCC3)C[C@@H]2C1` [Example 142, (3aR,5s,6aS)-N-(6-(pyrrolidin-1-yl)-4-(trifluoro-methyl)pyridazin-3-yl)-2-((tetrahydro-2H-pyran-4-yl)methyl)octahydro-cyclopenta[c]pyrrol-5-amine], the remaining activity at 30 µM was 2% and the negative logarithm of the IC50 (pIC50) is 8.52.

For the compound `FC(F)(F)c1cc(N2CCOCC2)nnc1N[C@H]1C[C@@H]2CN(CC3CCOCC3)C[C@@H]2C1` [Example 143, (3aR,5s,6aS)-N-(6-morpholino-4-(trifluoromethyl)pyridazin-3-yl)-2-((tetrahydro-2H-pyran-4-yl)methyl)octahydro-cyclopenta[c]pyrrol-5-amine], the remaining activity at 30 µM worked out at 2% and the negative logarithm of the IC50 (pIC50) was 7.45.

On to `[2H]C([2H])(C1CCOCC1)N1C[C@H]2C[C@H](Nc3nnc(-c4ccc5c(cnn5C)c4)cc3C(F)(F)F)C[C@H]2C1` [Example 144, (3aR,5s,6aS)-N-(6-(1-methyl-1H-indazol-5-yl)-4-(trifluoromethyl)pyridazin-3-yl)-2-((tetrahydro-2H-pyran-4-yl)methyl)octahydro-cyclopenta[c]pyrrol-5-amine], for which the remaining activity at 30 µM came out at 3% and the pIC50 was 7.15.

Regarding `N#Cc1cc(-c2cc(F)ccc2Cl)nnc1N[C@H]1C[C@@H]2CN(CC3CCOCC3)C[C@@H]2C1` [Example 145, 6-(2-chloro-5-fluorophenyl)-3-(((3aR,5s,6aS)-2-((tetrahydro-2H-pyran-4-yl)methyl)octahydro-cyclopenta[c]pyrrol-5-yl)amino)pyridazine-4-carbonitrile], the remaining activity at 30 µM was 3% and the pIC50 is 8.85.

Regarding `Cc1ccc(F)cc1-c1cc(C#N)c(N[C@H]2C[C@@H]3CN(CC4CCOCC4)C[C@@H]3C2)nn1` [Example 146, 6-(5-fluoro-2-methylphenyl)-3-(((3aR,5s,6aS)-2-((tetrahydro-2H-pyran-4-yl)methyl)octahydro-cyclopenta[c]pyrrol-5-yl)amino)pyridazine-4-carbonitrile], the remaining activity at 30 µM turned out to be 6% and the pIC50 is 7.81.

Regarding `Cc1ccc(F)cc1-c1cc(C#N)c(N[C@H]2C[C@@H]3CN(C[C@@H]4CC5CCC4O5)C[C@@H]3C2)nn1` (stereo partly drawn) [Example 147, 3-(((3aR,5s,6aS)-2-(((2S)-7-oxabicyclo[2.2.1]heptan-2-yl)methyl)octahydro-cyclopenta[c]pyrrol-5-yl)amino)-6-(5-fluoro-2-methylphenyl)pyridazine-4-carbonitrile], the remaining activity at 30 µM worked out at 5% and the negative-log IC50 (pIC50) is 9.10.

Take `Cc1ccc(F)cc1-c1cc(C#N)c(N[C@H]2C[C@@H]3CN(C[C@H]4CC5CCC4O5)C[C@@H]3C2)nn1` (stereo partly drawn) [Example 148, 3-(((3aR,5s,6aS)-2-(((2R)-7-oxabicyclo[2.2.1]heptan-2-yl)methyl)octahydro-cyclopenta[c]pyrrol-5-yl)amino)-6-(5-fluoro-2-methylphenyl)pyridazine-4-carbonitrile]: the remaining activity at 30 µM came to 2% and the negative logarithm of the IC50 (pIC50) was 8.96.

Consider `Cc1ccc(F)cc1-c1cc(C#N)c(N[C@H]2C[C@@H]3CN(C[C@H]4COCCO4)C[C@@H]3C2)nn1` [Example 149, 3-(((3aR,5s,6aS)-2-(((S)-1,4-dioxan-2-yl)methyl)octahydro-cyclopenta[c]pyrrol-5-yl)amino)-6-(5-fluoro-2-methylphenyl)pyridazine-4-carbonitrile], for which the remaining activity at 30 µM is 2% and the pIC50 was 9.40.

For the compound `Cc1ccc(F)cc1-c1cc(C#N)c(N[C@H]2C[C@@H]3CN(C[C@@H]4COCCO4)C[C@@H]3C2)nn1` [Example 150, 3-(((3aR,5s,6aS)-2-(((R)-1,4-dioxan-2-yl)methyl)octahydro-cyclopenta[c]pyrrol-5-yl)amino)-6-(5-fluoro-2-methylphenyl)pyridazine-4-carbonitrile], the remaining activity at 30 µM came out at 3% and the negative logarithm of the IC50 (pIC50) is 7.52.

Consider `Cc1ccc(F)cc1-c1cc(C#N)c(N[C@H]2C[C@@H]3CN(C[C@@H]4CCOC4)C[C@@H]3C2)nn1` [Example 151, 6-(5-fluoro-2-methylphenyl)-3-(((3aR,5s,6aS)-2-(((S)-tetrahydrofuran-3-yl)methyl)octahydro-cyclopenta[c]pyrrol-5-yl)amino)pyridazine-4-carbonitrile], for which the remaining activity at 30 µM worked out at 7% and the pIC50 is 6.98.

For `Cc1ccc(F)cc1-c1cc(C#N)c(N[C@H]2C[C@@H]3CN(C[C@H]4CCOC4)C[C@@H]3C2)nn1` [Example 152, 6-(5-fluoro-2-methylphenyl)-3-(((3aR,5s,6aS)-2-(((R)-tetrahydrofuran-3-yl)methyl)octahydro-cyclopenta[c]pyrrol-5-yl)amino)pyridazine-4-carbonitrile], the remaining activity at 30 µM amounted to 6% and the negative logarithm of the IC50 (pIC50) is 7.83.

The values above are taken from US20230183219A1, “CONDENSED SUBSTITUTED HYDROPYRROLES AS ANTAGONISTS OF THE MUSCARINIC ACETYLCHOLINE RECEPTOR M4” (Vanderbilt University, priority 2020, published 2023).
